Laboratory results reported in ChEMBL document CHEMBL5729671, “Substituted pyrazolo[1,5-a]pyrazines as negative allosteric modulators of group II metabotropic glutamate receptor” (2023).

Target: Metabotropic glutamate receptor 2 (Homo sapiens, UniProt Q14416)
Test: Assessment of mGlu2 Receptor Negative Allosteric Modulator Activity: Human mGlu2 receptor stable expressing cells were prepared and incubated. Luminescence signals by mGlu2 receptor stimulation were detected with FDSS7000 (Hamamatsu Photonics). The compound solution prepared above was added to a plate where cells and luminescent substrates were added (10 μl/well). After 120 seconds of the addition, EC80 Glutamate-containing solution was added thereto (10 μl/well), and luminescence signals were measured for 300 seconds after the addition (center wavelength: 465 nm) for calculation of RLU (Integration). mGlu2 receptor negative allosteric modulator activity of a compound was calculated by (100-100×(RLU of each compound and concentration)/(RLU of DMSO group)).The present compound was assessed with the above biological test, and the compounds with mGlu2 receptor negative allosteric modulator activity were found out.

Chain of Metabotropic glutamate receptor 2 (Q14416 whole entry): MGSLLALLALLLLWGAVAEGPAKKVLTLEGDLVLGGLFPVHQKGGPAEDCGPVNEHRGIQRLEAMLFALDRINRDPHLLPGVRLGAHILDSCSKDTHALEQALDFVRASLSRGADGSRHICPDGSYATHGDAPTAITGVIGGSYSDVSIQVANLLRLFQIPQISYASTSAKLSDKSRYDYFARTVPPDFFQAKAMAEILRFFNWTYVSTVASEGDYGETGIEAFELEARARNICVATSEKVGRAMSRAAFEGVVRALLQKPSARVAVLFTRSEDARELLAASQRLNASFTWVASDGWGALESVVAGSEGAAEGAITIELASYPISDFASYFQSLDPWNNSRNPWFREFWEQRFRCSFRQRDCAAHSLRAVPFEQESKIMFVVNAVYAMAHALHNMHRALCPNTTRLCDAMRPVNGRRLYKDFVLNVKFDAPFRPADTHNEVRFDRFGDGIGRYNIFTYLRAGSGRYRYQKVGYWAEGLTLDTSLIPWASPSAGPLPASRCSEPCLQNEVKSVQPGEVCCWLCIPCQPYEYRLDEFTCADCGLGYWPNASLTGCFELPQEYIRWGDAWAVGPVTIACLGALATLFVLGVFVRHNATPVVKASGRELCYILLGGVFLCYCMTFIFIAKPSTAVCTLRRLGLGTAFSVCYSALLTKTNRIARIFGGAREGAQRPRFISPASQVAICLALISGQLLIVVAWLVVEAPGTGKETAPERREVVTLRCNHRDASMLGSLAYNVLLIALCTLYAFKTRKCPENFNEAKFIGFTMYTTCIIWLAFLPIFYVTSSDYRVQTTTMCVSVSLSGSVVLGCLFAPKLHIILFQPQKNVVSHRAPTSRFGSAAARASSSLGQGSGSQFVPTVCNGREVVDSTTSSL

SMILES	IC50 [nM]
C[C@H]1CN(c2ccc3c(c2)OC(F)(F)O3)C(=O)c2c(-c3ccc4nccn4c3)cnn21	19
C[C@H]1CN(c2ccc(Cl)cc2)C(=O)c2c(-c3ccc4nccn4c3)cnn21	26
C[C@H]1CN(c2ccc(C(F)(F)F)cn2)C(=O)c2c(-c3ccc4nccn4c3)cnn21	16
C[C@H]1CN(c2ccc(Cl)c(F)c2)C(=O)c2c(-c3ccc4nccn4c3)cnn21	18

The next lines start with the values.

IC50 [nM]	SMILES
9.1	Cc1cnc2ccc(-c3cnn4c3C(=O)N(c3ccc(C(F)(F)F)cc3)C[C@@H]4C)cn12
16	Cc1cc(N2C[C@H](C)n3ncc(-c4ccc5ncc(C)n5c4)c3C2=O)ccc1F
7.8	CCc1cnc2ccc(-c3cnn4c3C(=O)N(c3ccc(C(F)(F)F)cc3)C[C@@H]4C)cn12
